Patent publication US20210032257A1, “(E)-1-(4-(DIMETHYLAMINO)BUT-2-ENOYL)PYRROLIDIN-3-YL 4-((3-ISOPROPYL-5-METHYLPYRAZOLO[1,5-A]PYRIMIDIN-7-YL)AMINO)PIPERIDINE-1-CARBOXYLATE FOR INHIBITING CDK7” (Eli Lilly and Company, priority 2017, published 2021)

Key:
Experiment in all cases: Biomarker study proliferation (CellTiter-Glo)
Type in all cases: cell-based
[1] = test system: HGC27
Outline: (§1)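 Overnight-plated cells (5000/well, 37 °C, 5% CO2) receive compound diluted through an OPTIMEM + 10% FBS intermediate plate. After one week, CellTiter-Glo is added and luminescence is read.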

[2] = test system: JHH7
Outline: as §1

[3] = test system: DU145
Outline: as §1

[4] = test system: LI7
Outline: as §1

[5] = test system: OZ
Outline: as §1

[6] = test system: NCIH226
Outline: as §1

[7] = test system: TEK1
Outline: as §1

[8] = test system: SNU478
Outline: as §1

[9] = test system: JURKAT
Outline: as §1

[10] = test system: PATU8988T
Outline: as §1

[11] = test system: ZR751
Outline: as §1

[12] = test system: NCIH209
Outline: as §1

[13] = test system: SNU308
Outline: as §1

[14] = test system: EBC1
Outline: as §1

[15] = test system: U87MG
Outline: as §1

[16] = test system: RT112
Outline: as §1

[17] = test system: HCT116
Outline: as §1

[18] = test system: CACO2
Outline: as §1

[19] = test system: HCC1187
Outline: as §1

[20] = 168 h, read-out: Anti-proliferation effect IC50

## Cc1cc(NC2CCN(C(=O)O[C@H]3CCN(C(=O)/C=C/CN(C)C)C3)CC2)n2ncc(C(C)C)c2n1 [Example 1, [(3S)-1-[(E)-4-(dimethylamino)but-2-enoyl]pyrrolidin-3-yl] 4-[(3-isopropyl-5-methyl-pyrazolo[1,5-a]pyrimidin-7-yl)amino]piperidine-1-carboxylate]
[1]; HGC27, STOMACH, 7 days
  Anti-proliferation effect % Inh.: 78%
  Anti-proliferation effect Outcome: Cytotoxic (cytotoxic (IC50<1 μM and % inhibition ≥70%))
[1]; Homo sapiens, HGC-27, 168 h, read-out: Anti-proliferation effect IC50
  IC50: 68 nM
[2]; JHH7, 168 h, read-out: Anti-proliferation effect IC50
  IC50: 27 nM
[2]; JHH7, LIVER, 7 days
  Anti-proliferation effect % Inh.: 88%
  Anti-proliferation effect Outcome: Cytotoxic (cytotoxic (IC50<1 μM and % inhibition ≥70%))
[3]; DU145, PROSTATE, 7 days
  Anti-proliferation effect % Inh.: 74%
  Anti-proliferation effect Outcome: Cytotoxic (cytotoxic (IC50<1 μM and % inhibition ≥70%))
[3]; Homo sapiens, DU-145, 168 h, read-out: Anti-proliferation effect IC50
  IC50: 36 nM
[4]; LI7, LIVER, 7 days
  Anti-proliferation effect % Inh.: 76%
  Anti-proliferation effect Outcome: Cytotoxic (cytotoxic (IC50<1 μM and % inhibition ≥70%))
[4]; Li-7, 168 h, read-out: Anti-proliferation effect IC50
  IC50: 132 nM
[5]; [20]
  IC50: 50 nM
[5]; OZ, LIVER, 7 days
  Anti-proliferation effect % Inh.: 77%
  Anti-proliferation effect Outcome: Cytotoxic (cytotoxic (IC50<1 μM and % inhibition ≥70%))
[6]; Homo sapiens, NCI-H226, 168 h, read-out: Anti-proliferation effect IC50
  IC50: 1200 nM
[6]; NCIH226, LUNG, 7 days
  Anti-proliferation effect % Inh.: 43%
  Anti-proliferation effect Outcome: Insensitive (insensitive (IC50≥1 μM))
[7]; [20]
  IC50: 40 nM
[7]; TEK1, BILIARY, 7 days
  Anti-proliferation effect % Inh.: 87%
  Anti-proliferation effect Outcome: Cytotoxic (cytotoxic (IC50<1 μM and % inhibition ≥70%))
[8]; [20]
  IC50: 32 nM
[8]; SNU478, BILIARY, 7 days
  Anti-proliferation effect % Inh.: 92%
  Anti-proliferation effect Outcome: Cytotoxic (cytotoxic (IC50<1 μM and % inhibition ≥70%))
[9]; Homo sapiens, Jurkat, 168 h, read-out: Anti-proliferation effect IC50
  IC50: 61 nM
[9]; JURKAT, BLOOD, 7 days
  Anti-proliferation effect % Inh.: 98%
  Anti-proliferation effect Outcome: Cytotoxic (cytotoxic (IC50<1 μM and % inhibition ≥70%))
[10]; Homo sapiens, PaTu 8988t, 168 h, read-out: Anti-proliferation effect IC50
  IC50: 201 nM
[10]; PATU8988T, PANCREAS, 7 days
  Anti-proliferation effect % Inh.: 55%
  Anti-proliferation effect Outcome: Cytostatic (cytostatic (IC50<1 μM and % inhibition <70%))
[11]; Homo sapiens, ZR-75-1, 168 h, read-out: Anti-proliferation effect IC50
  IC50: 43 nM
[11]; ZR751, BREAST, 7 days
  Anti-proliferation effect % Inh.: 69%
  Anti-proliferation effect Outcome: Cytostatic (cytostatic (IC50<1 μM and % inhibition <70%))
[12]; Homo sapiens, NCI-H209, 168 h, read-out: Anti-proliferation effect IC50
  IC50: 40 nM
[12]; NCIH209, LUNG, 7 days
  Anti-proliferation effect % Inh.: 83%
  Anti-proliferation effect Outcome: Cytotoxic (cytotoxic (IC50<1 μM and % inhibition ≥70%))
[13]; [20]
  IC50: 184 nM
[13]; SNU308, BILIARY, 7 days
  Anti-proliferation effect % Inh.: 61%
  Anti-proliferation effect Outcome: Cytostatic (cytostatic (IC50<1 μM and % inhibition <70%))
[14]; EBC1, LUNG, 7 days
  Anti-proliferation effect % Inh.: 83%
  Anti-proliferation effect Outcome: Cytotoxic (cytotoxic (IC50<1 μM and % inhibition ≥70%))
[14]; Homo sapiens, EBC-1, 168 h, read-out: Anti-proliferation effect IC50
  IC50: 47 nM
[15]; Homo sapiens, U-87 MG, 168 h, read-out: Anti-proliferation effect IC50
  IC50: 7360 nM
[15]; U87MG, CNS, 7 days
  Anti-proliferation effect % Inh.: −5%
  Anti-proliferation effect Outcome: Insensitive (insensitive (IC50≥1 μM))
[16]; Homo sapiens, RT-112, 168 h, read-out: Anti-proliferation effect IC50
  IC50: 32 nM
[16]; RT112, URINARY, 7 days
  Anti-proliferation effect % Inh.: 87%
  Anti-proliferation effect Outcome: Cytotoxic (cytotoxic (IC50<1 μM and % inhibition ≥70%))
[17]; HCT116, INTESTINE, 7 days
  Anti-proliferation effect % Inh.: 88%
  Anti-proliferation effect Outcome: Cytotoxic (cytotoxic (IC50<1 μM and % inhibition ≥70%))
[17]; Homo sapiens, HCT-116, 168 h, read-out: Anti-proliferation effect IC50
  IC50: 41 nM
[18]; CACO2, INTESTINE, 7 days
  Anti-proliferation effect % Inh.: 60%
  Anti-proliferation effect Outcome: Cytostatic (cytostatic (IC50<1 μM and % inhibition <70%))
[18]; Homo sapiens, Caco-2, 168 h, read-out: Anti-proliferation effect IC50
  IC50: 189 nM
[19]; HCC1187, BREAST, 7 days
  Anti-proliferation effect % Inh.: 73%
  Anti-proliferation effect Outcome: Cytotoxic (cytotoxic (IC50<1 μM and % inhibition ≥70%))
[19]; Homo sapiens, HCC1187, 168 h, read-out: Anti-proliferation effect IC50
  IC50: 27 nM
